Five compounds from US10457707B2, “Substituted urea depsipeptide analogs as activators of the CLPP endopeptidase” (priority 2015, dated 2019) can be followed below.

Holding throughout (format): cell-based
A short description of series [1]: Cytotoxicity assay (CellTiter-Glo cell viability, 72 hours). The note with it: African green monkey. The protocol: Cytotoxicity was determined by determining the effect of compounds on cell viability. Vero (kidney epithelial cells; ATCC CCL-81) monolayers were trypsinized and 5000 cells/well were seeded (10-15% confluency) into white-wall, flat bottom 96 well microwell plates (Corning) using enriched Dulbecco's Modified Eagle's Medium (Hyclone:DMEM/High Glucose) containing 10% Fetal Bovine Serum (ATCC-30-2020). Plates were incubated overnight at 37° C. in the presence of 5% CO2. Drug-free media was then replaced with media containing serial dilutions of test compound or DMSO carrier. After an additional 72 hours of incubation, viability was indirectly measured using the CellTiter-Glo® Luminescent Cell Viability (Promega) assay. Assay plates were read at peak emission wavelength of 560 nm using a EnVision® Multilabel Plate Reader (Perkin Elmer) or PHERAstar FS Multilabel reader (BMG, Cary, N.C.). […] USA, www.graphpad.com]. For each experiment, compounds were tested in duplicate. IC50 values presented are the range of two biologically independent experiments.

Series [2] has as its system Streptococcus pyogenes, ATCC 700294. Put plainly: Minimal inhibitory concentration assay (microbroth dilution). The method, boiled down:
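CLSI broth microdilution: two-fold serial compound dilutions in appropriate broth, inoculated and incubated aerobically overnight at 37° C. MIC read visually as lowest concentration preventing bacterial growth.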

Series [3] has as its system Staphylococcus aureus, NRS70. Described as above. The procedure, abridged:
(§1)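 CLSI broth microdilution: two-fold compound dilutions from 200 μM final, ~10^5 cfu/mL inoculum, aerobic overnight incubation at 37 °C. MIC read visually as lowest concentration preventing growth; S. aureus USA 300 compared with its ClpP-inactivated counterpart to check ClpP dependence.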

Series [4] concerns Bacillus subtilis, ATCC 23857. The description is as above. The method, boiled down: as §1
Series [5] concerns Staphylococcus aureus, ATCC 29213. The description is as above. The conditions noted are these: ATCC29213, read-out: Minimal Inhibitory Concentrations S. aureus ATCC 29213. The procedure, abridged:
as §1

In series [6] the test system is Streptococcus pneumoniae, R6. Put plainly: Minimal inhibitory concentration assay. The note with it: read-out: Minimal Inhibitory Concentrations S. pneumoniae R6. How it is done:
It is understood, that in various aspects, the MIC is determined by a microbroth dilution method. […] In a still further aspect, the MIC is determined by a microbroth dilution method using Staphylococcus aureus, NRS70. […] In an even further aspect, the MIC is determined by a microbroth dilution method using Streptococcus pneumoniae, DAW27. […] In an even further aspect, the MIC is determined using Staphylococcus aureus, USA 300. In a still further aspect, the MIC is determined using Streptococcus pneumoniae, R6. In a further aspect, the MIC is determined using Staphylococcus aureus, USA 300 and compared to the MIC determined using Staphylococcus aureus, USA 300 wherein ClpP is inactivated, thus allowing confirmation that killing is via a ClpP-dependent pathway.
Two fold serial dilutions of test compound in 100 μL of the appropriate broth media were first prepared in 96-well round bottom microtiter plates (Nalgene Nunc International, Rochester, N.Y., USA). […] The plates were then incubated aerobically at 37° C. All strains were incubated overnight. After incubations, in all cases the MIC was recorded as the lowest concentration of drug that prevented bacterial growth. The bacterial strains for which MIC was determined as described in Table 4.

The subject of series [7] is Staphylococcus aureus, USA 300 wherein ClpP is inactivated. Put plainly: Minimal inhibitory concentration assay. The method, boiled down:
as §1

Series [8] relates to Staphylococcus aureus, USA 300. Put plainly: Minimal inhibitory concentration assay. The note with it: USA300, read-out: Minimal Inhibitory Concentrations S. aureus USA 300. The procedure, abridged:
as §1

The test system of series [9] is Enterococcus faecalis, ATCC 33186. Put plainly: Minimal inhibitory concentration assay (microbroth dilution). The conditions noted are these: Enterococcus faecalis, ATCC33186, read-out: Minimal Inhibitory Concentrations E. faecalis ATCC 33186. The procedure, abridged: as §1
Setting [10] is: Streptococcus pyogenes, ATCC700294; read-out: Minimal Inhibitory Concentrations S. pyogenes ATCC 700294.
The mark [11] stands for this setting: Staphylococcus aureus, NRS70; read-out: Minimal Inhibitory Concentrations S. aureus NRS70.
[12] abbreviates: Bacillus subtilis, ATCC23857; read-out: Minimal Inhibitory Concentrations B. subtilis ATCC 23857.
[13] abbreviates: Vero cells, 72 hours, growth inhibition, read-out: Cytotoxicity IC50.

≈ marks a conversion by molar mass, not a printed value. Like-named read-outs stand apart in the source and are kept apart here. *1 amine or outer side, *2 acyl side, *3 side chain or, on linkers, in order; H or OH if unused. Where a SMILES comes first, the peptide text is derived from it. Bridges are numbered along the chain shown (N, C = ends). [ ]: non-standard residue; d: D form. The star is where a group is joined. NH(1,3-benzodioxol-5-yl) = c1cc2c(cc1N*)OCO2; Phe(3,5-F2) = N[C@@H](Cc1cc(F)cc(F)c1)C(=O)O; Morpholine(3S-CO) = O=C(O)[C@@H]1COCCN1; Pro(4S-Me) = C[C@@H]1CN[C@H](C(=O)O)C1; Pro(4R-Me) = C[C@H]1CN[C@H](C(=O)O)C1; NH(4-Me-phenyl) = Cc1ccc(N*)cc1; aThr = C[C@H](O)[C@H](N)C(=O)O; Pip = O=C(O)[C@@H]1CCCCN1; X3 = Cn1ccc2ccc(N*)cc21; CO = O=C([*:1])[*:2] A value given as a limit tells only on which side of the number the result lay.

`C[C@H]1C[C@H]2C(=O)O[C@@H](C)[C@H](NC(=O)[C@H](Cc3cc(F)cc(F)c3)NC(=O)Nc3ccc4c(c3)OCO4)C(=O)N3CCC[C@H]3C(=O)N3CCCC[C@H]3C(=O)N[C@@H](C)C(=O)N2C1` [Compound 196, (S)-2-(3-(benzo[d][1,3]dioxol-5-yl)ureido)-3-(3,5-difluorophenyl)-N-((2R,6S,8aS,14aS,20S,21S,23aS)-2,6,21-trimethyl-5,8,14,19,23-pentaoxooctadecahydro-1H,5H,14H,19H-pyrido[2,1-i]dipyrrolo[2,1-c:2′,1′-l][1]oxa[4,7,10,13]tetraazacyclohexadecin-20-yl)propanamide] ({NH(1,3-benzodioxol-5-yl)-CO}-[Phe(3,5-F2)][aThr]P[Pip]A[Pro(4S-Me)]; ester 2-C) registered an IC50 at 72 h in series [1] of 52.8 ± 4.9 µM.

Consider `C[C@@H]1C[C@H]2C(=O)O[C@@H](C)[C@H](NC(=O)[C@H](Cc3cc(F)cc(F)c3)NC(=O)Nc3ccc4c(c3)OCO4)C(=O)N3CCC[C@H]3C(=O)N3CCOC[C@H]3C(=O)N[C@@H](C)C(=O)N2C1` [Compound 199, (S)-2-(3-(benzo[d][1,3]dioxol-5-yl)ureido)-3-(3,5-difluorophenyl)-N-((6aS,12S,13S,15aS,17R,21S,23aS)-13,17,21-trimethyl-6,11,15,20,23-pentaoxooctadecahydro-6H,11H,15H-[1,4]oxazino[3,4-i]dipyrrolo[2,1-c:2′,1′-l][1]oxa[4,7,10,13]tetraazacyclohexadecin-12-yl)propanamide] ({NH(1,3-benzodioxol-5-yl)-CO}-[Phe(3,5-F2)][aThr]P[Morpholine(3S-CO)]A[Pro(4R-Me)]; ester 2-C), for which the MIC is 0.039 µM (≈ 0.0328 µg/mL) in [2] (setting [10]); 0.039 µM (≈ 0.0328 µg/mL) in [3] (setting [11]); 0.039 µM (≈ 0.0328 µg/mL) in [4] (setting [12]); 0.039 µM (≈ 0.0328 µg/mL) in series [5]; under 0.02 µM in series [6]; 0.078 µM (≈ 0.0655 µg/mL) in [8]. Further, the “Minimal Inhibitory Concentrations S. aureus USA 300 ΔClpP” value in series [7] was over 20 µM.

On to `Cc1ccc(NC(=O)N[C@@H](Cc2cc(F)cc(F)c2)C(=O)N[C@@H]2C(=O)N3CCC[C@H]3C(=O)N3CCCC[C@H]3C(=O)N[C@@H](C)C(=O)N3C[C@@H](C)C[C@H]3C(=O)O[C@H]2C)cc1` [Compound 200, (S)-3-(3,5-difluorophenyl)-2-(3-(p-tolyl)ureido)-N-((2R,6S,8aS,14aS,20S,21S,23aS)-2,6,21-trimethyl-5,8,14,19,23-pentaoxooctadecahydro-1H,5H,14H,19H-pyrido[2,1-i]dipyrrolo[2,1-c:2′,1′-l][1]oxa[4,7,10,13]tetraazacyclohexadecin-20-yl)propanamide] ({NH(4-Me-phenyl)-CO}-[Phe(3,5-F2)][aThr]P[Pip]A[Pro(4S-Me)]; ester 2-C), for which the “Minimal Inhibitory Concentrations S. aureus USA 300 ΔClpP” value in [7] is 100 µM. Besides, the IC50 at 72 h in [1] (setting [13]) was 26.7 ± 3.6 µM.

For the compound `C[C@@H]1C[C@H]2C(=O)O[C@@H](C)[C@H](NC(=O)[C@H](Cc3cc(F)cc(F)c3)NC(=O)Nc3ccc4ccn(C)c4c3)C(=O)N3CCC[C@H]3C(=O)N3CCCC[C@H]3C(=O)N[C@@H](C)C(=O)N2C1` [Compound 306, (S)-3-(3,5-difluorophenyl)-2-(3-(1-methyl-1H-indol-6-yl)ureido)-N-((2R,6S,8aS,14aS,20S,21S,23aS)-2,6,21-trimethyl-5,8,14,19,23-pentaoxooctadecahydro-1H,5H,14H,19H-pyrido[2,1-i]dipyrrolo[2,1-c:2′,1′-l][1]oxa[4,7,10,13]tetraazacyclohexadecin-20-yl)propanamide] ({X3-CO}-[Phe(3,5-F2)][aThr]P[Pip]A[Pro(4R-Me)]; ester 2-C), the MIC in series [2] (Streptococcus pyogenes, ATCC700294, read-out: Minimal Inhibitory Concentrations S. pyogenes ATCC 700294) stood at 0.313 µM (≈ 0.265 µg/mL); in series [3] (Staphylococcus aureus, NRS70, read-out: Minimal Inhibitory Concentrations S. aureus NRS70) it was 0.078 µM (≈ 0.0661 µg/mL); in series [9] it was 0.039 µM (≈ 0.033 µg/mL); in series [4] (Bacillus subtilis, ATCC23857, read-out: Minimal Inhibitory Concentrations B. subtilis ATCC 23857), 0.078 µM (≈ 0.0661 µg/mL); in series [5] it was 0.156 µM (≈ 0.132 µg/mL); in [8], 0.156 µM (≈ 0.132 µg/mL). Moreover, in [7], the “Minimal Inhibitory Concentrations S. aureus USA 300 ΔClpP” value was over 20 µM. Moreover, the IC50 at 72 h in [1] (setting [13]) was 11.8 ± 0.8 µM.

In the case of `CN[C@@H]1[C@H](O)[C@H](NC)[C@H]2O[C@@]3(O)C(=O)C[C@@H](C)O[C@H]3O[C@@H]2[C@H]1O` [Spectinomycin, spectinomycin, reference compound], the MIC was 12.5 µM (≈ 4.15 µg/mL) in series [2] (setting [10]); over 800 µM in series [3] (setting [11]); 6.3 µM (≈ 2.09 µg/mL) in series [4] (setting [12]); 50 µM (≈ 16.6 µg/mL) in series [5]; 6.3 µM (≈ 2.09 µg/mL) in [6]; 50 µM (≈ 16.6 µg/mL) in series [8]. For the same compound, in series [7], the “Minimal Inhibitory Concentrations S. aureus USA 300 ΔClpP” value was 25 µM.
